From patent US10993433B2, “Method of producing in vitro testicular constructs and uses thereof” (Wake Forest University Health Sciences, priority 2015, dated 2021)
Like-named read-outs stand apart in the source and are kept apart here.

Legend:
[1] = system: 3D human testicular organoids; assay: Drug toxicity test, CellTiter-Glo ATP viability, 3D testicular organoids; format: cell-based; details: 48 hours exposure, ATP content
Method: Isolated human SSC, immortalized Sertoli cells, and immortalized Leydig cells at passage 5-6 were propagated in normal 6-well tissue culture plates to 80-90% confluency and passaged using trypsin EDTA (0.25%). Counted cells were pelleted and resuspended in a testicular organoid formation medium composed of normal StemPro®-34 (Invitrogen) SSC proliferation medium supplemented with 30% FBS, 1 μg/mL solubilized human testis extracellular matrix extract and 50 μg/mL Gentamycin. All three cell suspensions were combined together at a ratio of 8:1:1 and seeded into Perfecta3D® 96-well hanging drop plates (3D Biomatrix, Ann Arbor, Mich.) or GravityPLUS™ 96-well hanging drop plates (InSphero, Schlieren, Switzerland) at a density of 10,000 cells/40 μl drop volume. Following 48-72 hours of hanging drop culture, all testicular cell subtypes had amalgamated into compact organoids and were transferred into 96-well format Corning® Costar® Ultra-low Attachment Multiwell U-bottom plates for long term culture (Sigma-Aldrich, St. Louis, Mo.). For long-term study, all testicular organoids were cultured inn normal StemPro®-34 SSC proliferation medium without human leukemia inhibitory factor (LIF) and supplemented with 1 μg/mL solubilized human testis extracellular matrix extract, 2 μM retinoic acid (Sigma-Aldrich), 2.5×10^−5 IU follicle-stimulating hormone (Sigma-Aldrich), 100 ng/mL recombinant human stem cell factor (SCF; PeproTech, Rocky Hill, N.J.), and 50 μg/mL Gentamycin. Culture medium was refreshed every 4 days. All testicular organoids were cultured at 34° C. and 5% CO2.
(§1) For toxicity testing, cisplatin and etoposide were purchased from Santa Cruz Biotechnology (Dallas, Tex.) and stock solutions of 5 mM and 25 mM were made in 0.9% NaCl and DMSO, respectively. Doxorubicin was purchased from Sigma-Aldrich, (St. Louis, Mo.) and a stock solution was produced in diH2O at a concentration of 10 mM. Busulfan (24 mM) was purchased from Otsuka Pharmaceutical (Tokyo, Japan) and was diluted into medium immediately prior to use. The undifferentiated (just after formation, 2 days in culture) and differentiated (23 days in culture) organoids, as well as 2D cultured cells (at the same cell ratios and density of 3D organoids), were treated for 48 hours in 6 different concentrations of each drug (0.01, 0.1, 1, 10, 100 and 1000 μM) in vitro. After 48 hours, CellTiter-Glo® Luminescent Cell Viability assays were performed (Promega) on all conditions. Briefly, culture plates were removed from the incubator and equilibrated to room temperature for 30 minutes. To each well of the 96-well culture plate, 100 μl of CellTiter-Glo® reagent was added at a 1:1 ratio and plates were moved to an orbital shaker for 5 minutes to induce cell lysis. Plates were incubated at room temperature for 10 minutes to stabilize luminescent signal and read on a Veritas™ luminometer. Integration times of 1 second were used for all samples. All conditions were performed in triplicate and medium only control wells were read and subsequently used for background subtraction. IC50 values were determined using GraphPad Prism® 6 calculated via 4-parameter fit with a 95% confidence interval. All experimental conditions were repeated at least three times.
The use of human testicular organoids as a novel screening tool for reproductive toxicity was assess by exposing 3D organoids to four clinically relevant antimitotic chemotherapeutic drugs: busulfan, cisplatin, doxorubicin, and etoposide. To obtain IC50 values, undifferentiated (2 days in culture) and differentiated (23 days in culture) organoids were exposed to increasing concentrations of drugs for 48 hours. H&E staining as well as Live/Dead viability assays were performed on organoids following drug treatment (FIG. 7A and Figure B, respectively). Drug-treated organoids were harvested and further evaluated for toxicity by measuring ATP production (CellTiter-Glo®; Promega, Madison, Wis.). […]

[2] = system: 2D cultured cells (SSC, Sertoli, Leydig at the same cell ratios and density of 3D organoids); assay: Drug toxicity test, CellTiter-Glo ATP viability, 2D cultured testicular cells; format: cell-based, human; details: 2D culture, 48 hours exposure, ATP content (CellTiter-Glo)
Method: as §1
The use of human testicular organoids as a novel screening tool for reproductive toxicity was assess by exposing 3D organoids to four clinically relevant antimitotic chemotherapeutic drugs: busulfan, cisplatin, doxorubicin, and etoposide. To obtain IC50 values, undifferentiated (2 days in culture) and differentiated (23 days in culture) organoids were exposed to increasing concentrations of drugs for 48 hours. H&E staining as well as Live/Dead viability assays were performed on organoids following drug treatment (FIG. 7A and Figure B, respectively). Drug-treated organoids were harvested and further evaluated for toxicity by measuring ATP production (CellTiter-Glo®; Promega, Madison, Wis.). Resulting viability was then used to establish IC50 values for organoid cultures (FIG. 7C).

[3] = Homo sapiens, differentiated organoids (23 days in culture), read-out: 3D IC50 Differentiated Organoids
[4] = Homo sapiens, undifferentiated organoids (2 days in culture), read-out: 3D IC50 Undifferentiated Organoids

Row | SMILES | IC50 [1, 3] [µM] | IC50 [1, 4] [µM] | IC50 ([2]; Homo sapiens, Leydig) [µM] | IC50 ([1]; differentiated organoids (23 days in culture), read-out: 3D IC50 Differentiated Organoids) [µM] | IC50 ([1]; undifferentiated organoids (2 days in culture), read-out: 3D IC50 Undifferentiated Organoids) [µM] | IC50 [2] [µM]
1 | CS(=O)(=O)OCCCCOS(C)(=O)=O [Busulfan] | 906 | 830 | 328 | – | – | –
2 | N.N.[Cl][Pt][Cl] [Cisplatin] | – | – | – | 158 | 38.4 | 23.8
3 | COc1cccc2c1C(=O)c1c(O)c3c(c(O)c1C2=O)C[C@@](O)(C(=O)CO)C[C@@H]3O[C@H]1C[C@H](N)[C@H](O)[C@H](C)O1 [Doxorubicin] | 2.76 | 1.33 | 0.19 | – | – | –
4 | COc1cc([C@@H]2c3cc4c(cc3[C@@H](O[C@@H]3O[C@@H]5CO[C@@H](C)O[C@H]5[C@H](O)[C@H]3O)[C@H]3COC(=O)[C@H]23)OCO4)cc(OC)c1O [Etoposide] | 839 | 449 | 43.5 | – | – | –
